{"source": "ChEMBL document CHEMBL1201862", "about": "“PubChem BioAssay data set” (2004)", "key": {"[1]": {"molecular_target": "T1, Nuclear receptor subfamily 0 group B member 1 (Homo sapiens, UniProt P51843)", "T1 sequence (P51843 whole entry)": "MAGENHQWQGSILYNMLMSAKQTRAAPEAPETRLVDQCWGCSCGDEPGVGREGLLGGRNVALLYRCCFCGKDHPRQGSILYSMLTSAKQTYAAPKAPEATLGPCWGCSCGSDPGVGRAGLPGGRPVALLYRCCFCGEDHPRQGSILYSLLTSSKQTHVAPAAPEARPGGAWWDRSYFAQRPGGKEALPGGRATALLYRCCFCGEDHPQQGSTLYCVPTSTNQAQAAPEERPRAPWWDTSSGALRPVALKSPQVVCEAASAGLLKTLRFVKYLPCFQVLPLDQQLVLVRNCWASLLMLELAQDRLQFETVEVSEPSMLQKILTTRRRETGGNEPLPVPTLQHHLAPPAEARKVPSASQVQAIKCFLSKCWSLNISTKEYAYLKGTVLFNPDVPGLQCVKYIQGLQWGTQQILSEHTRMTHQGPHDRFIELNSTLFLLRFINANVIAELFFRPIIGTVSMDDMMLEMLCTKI", "assay": "Luminescence-based cell-based high throughput dose response assay for inhibitors of the orphan nuclear receptor subfamily 0, group B, member 1 (DAX1; NR0B1). [Related pubchem assays (depositor defined):AID504766, AID504790]", "format": "functional"}, "HEK293": {"system": "HEK293", "assay": "cells", "format": "functional, cell-based", "conditions": "Homo sapiens"}, "Vero": {"system": "Vero", "assay": "Vero cell cytotoxicity, cytotoxicity control for flavivirus capping enzyme inhibitors (AID 588742)", "format": "functional", "conditions": "Chlorocebus sabaeus"}, "Phospholipase A2": {"molecular_target": "Phospholipase A2 (Homo sapiens, UniProt P04054)", "sequence (P04054 whole entry)": "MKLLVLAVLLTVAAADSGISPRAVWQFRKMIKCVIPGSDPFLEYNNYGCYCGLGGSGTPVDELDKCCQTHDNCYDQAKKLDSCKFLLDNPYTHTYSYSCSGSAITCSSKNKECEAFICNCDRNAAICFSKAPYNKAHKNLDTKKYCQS", "format": "functional"}, "Cysteine protease ATG4B": {"molecular_target": "Cysteine protease ATG4B (Homo sapiens, UniProt Q9Y4P1)", "sequence (Q9Y4P1 whole entry)": "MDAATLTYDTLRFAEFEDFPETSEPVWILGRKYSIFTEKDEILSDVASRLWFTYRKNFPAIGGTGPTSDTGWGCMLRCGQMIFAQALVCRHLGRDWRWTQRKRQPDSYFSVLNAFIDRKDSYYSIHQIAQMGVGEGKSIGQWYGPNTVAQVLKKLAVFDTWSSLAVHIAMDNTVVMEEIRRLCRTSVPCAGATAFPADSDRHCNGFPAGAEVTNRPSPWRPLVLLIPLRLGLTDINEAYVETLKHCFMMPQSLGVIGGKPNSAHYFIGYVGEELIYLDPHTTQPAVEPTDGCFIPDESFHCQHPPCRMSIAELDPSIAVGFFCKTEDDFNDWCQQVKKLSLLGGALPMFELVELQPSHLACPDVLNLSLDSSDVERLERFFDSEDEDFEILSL", "format": "functional"}, "Hexokinase HKDC1": {"molecular_target": "T2, Hexokinase HKDC1 (Homo sapiens, UniProt Q2TB90)", "T2 sequence (Q2TB90 whole entry)": "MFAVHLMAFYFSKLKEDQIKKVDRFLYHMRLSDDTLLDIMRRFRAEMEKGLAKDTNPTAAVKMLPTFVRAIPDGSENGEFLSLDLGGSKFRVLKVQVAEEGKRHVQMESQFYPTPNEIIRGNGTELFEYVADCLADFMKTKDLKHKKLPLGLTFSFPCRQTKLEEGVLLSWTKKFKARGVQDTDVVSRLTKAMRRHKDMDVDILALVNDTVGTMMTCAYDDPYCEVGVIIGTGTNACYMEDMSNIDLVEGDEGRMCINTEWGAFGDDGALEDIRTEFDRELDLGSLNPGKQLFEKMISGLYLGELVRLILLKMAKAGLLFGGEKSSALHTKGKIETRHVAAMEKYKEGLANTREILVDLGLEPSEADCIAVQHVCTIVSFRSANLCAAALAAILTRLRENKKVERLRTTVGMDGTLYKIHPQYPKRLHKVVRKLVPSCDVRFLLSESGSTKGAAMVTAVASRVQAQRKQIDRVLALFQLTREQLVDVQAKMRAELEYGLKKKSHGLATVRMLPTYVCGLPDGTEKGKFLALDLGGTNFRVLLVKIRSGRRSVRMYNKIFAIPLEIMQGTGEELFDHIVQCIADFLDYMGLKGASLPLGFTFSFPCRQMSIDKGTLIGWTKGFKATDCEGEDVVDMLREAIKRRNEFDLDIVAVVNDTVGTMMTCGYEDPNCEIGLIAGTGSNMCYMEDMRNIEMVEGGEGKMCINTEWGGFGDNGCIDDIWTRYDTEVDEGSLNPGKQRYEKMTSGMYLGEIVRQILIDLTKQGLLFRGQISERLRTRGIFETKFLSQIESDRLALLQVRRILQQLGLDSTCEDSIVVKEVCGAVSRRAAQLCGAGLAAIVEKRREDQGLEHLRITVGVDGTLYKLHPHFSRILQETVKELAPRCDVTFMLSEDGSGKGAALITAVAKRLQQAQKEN", "assay": "HKDC1 hexokinase inhibitors, SAR follow-up, biochemical, set 2 (AID 588355)", "format": "functional"}, "Hexokinase-1": {"molecular_target": "T3, Hexokinase-1 (Homo sapiens, UniProt P19367)", "T3 sequence (P19367 whole entry)": "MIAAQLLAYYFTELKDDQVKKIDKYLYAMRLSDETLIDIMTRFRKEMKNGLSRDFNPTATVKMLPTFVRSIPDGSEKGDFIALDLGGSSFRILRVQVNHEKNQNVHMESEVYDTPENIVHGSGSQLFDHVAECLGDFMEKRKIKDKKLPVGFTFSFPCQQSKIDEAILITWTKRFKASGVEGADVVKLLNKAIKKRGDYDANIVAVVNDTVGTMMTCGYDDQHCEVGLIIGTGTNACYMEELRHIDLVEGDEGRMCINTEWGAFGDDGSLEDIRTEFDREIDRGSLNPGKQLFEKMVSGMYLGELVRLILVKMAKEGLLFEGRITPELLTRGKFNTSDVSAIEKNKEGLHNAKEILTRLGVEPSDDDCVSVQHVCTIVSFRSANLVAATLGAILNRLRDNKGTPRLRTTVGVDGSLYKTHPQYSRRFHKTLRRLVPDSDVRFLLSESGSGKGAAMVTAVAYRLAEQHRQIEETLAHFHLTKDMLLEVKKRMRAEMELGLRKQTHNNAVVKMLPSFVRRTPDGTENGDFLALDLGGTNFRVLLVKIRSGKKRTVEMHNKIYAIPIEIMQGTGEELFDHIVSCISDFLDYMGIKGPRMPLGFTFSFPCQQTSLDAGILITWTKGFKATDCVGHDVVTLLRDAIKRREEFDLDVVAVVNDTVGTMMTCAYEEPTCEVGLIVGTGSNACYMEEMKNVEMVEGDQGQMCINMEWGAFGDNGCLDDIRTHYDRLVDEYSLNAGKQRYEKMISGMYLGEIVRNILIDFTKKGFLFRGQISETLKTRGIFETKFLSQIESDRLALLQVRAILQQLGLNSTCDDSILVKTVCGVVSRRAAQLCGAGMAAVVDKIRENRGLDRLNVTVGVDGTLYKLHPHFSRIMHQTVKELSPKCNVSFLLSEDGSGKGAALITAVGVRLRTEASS", "assay": "HK1 enzyme inhibition by HKDC1 hits, SAR follow-up, selectivity assay for HKDC1 inhibitor project, biochemical, set 2, resazurin fluorescence coupled readout (AID 588356)", "format": "functional"}, "[2]": {"molecular_target": "Beta-2 adrenergic receptor (Homo sapiens, UniProt P07550)", "sequence (P07550 whole entry)": "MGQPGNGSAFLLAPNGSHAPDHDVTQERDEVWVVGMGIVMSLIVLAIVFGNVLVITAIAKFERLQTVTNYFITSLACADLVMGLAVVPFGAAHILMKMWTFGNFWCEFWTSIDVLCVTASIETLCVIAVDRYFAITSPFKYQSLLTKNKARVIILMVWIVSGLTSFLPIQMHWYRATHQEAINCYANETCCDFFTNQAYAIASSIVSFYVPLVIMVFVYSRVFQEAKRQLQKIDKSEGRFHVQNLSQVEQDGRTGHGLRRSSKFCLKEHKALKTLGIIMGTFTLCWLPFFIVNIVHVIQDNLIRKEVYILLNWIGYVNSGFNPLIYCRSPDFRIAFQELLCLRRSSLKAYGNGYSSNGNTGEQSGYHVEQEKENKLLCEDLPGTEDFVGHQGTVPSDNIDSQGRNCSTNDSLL", "assay": "beta2AR agonists driving receptor internalization, dose response, cell-based, FAP fluorogen, flow cytometry, cherry pick 1 (AID 588763)", "format": "functional"}, "[3]": {"molecular_target": "Casein kinase I isoform delta (Homo sapiens, UniProt P48730)", "sequence (P48730 whole entry, canonical isoform)": "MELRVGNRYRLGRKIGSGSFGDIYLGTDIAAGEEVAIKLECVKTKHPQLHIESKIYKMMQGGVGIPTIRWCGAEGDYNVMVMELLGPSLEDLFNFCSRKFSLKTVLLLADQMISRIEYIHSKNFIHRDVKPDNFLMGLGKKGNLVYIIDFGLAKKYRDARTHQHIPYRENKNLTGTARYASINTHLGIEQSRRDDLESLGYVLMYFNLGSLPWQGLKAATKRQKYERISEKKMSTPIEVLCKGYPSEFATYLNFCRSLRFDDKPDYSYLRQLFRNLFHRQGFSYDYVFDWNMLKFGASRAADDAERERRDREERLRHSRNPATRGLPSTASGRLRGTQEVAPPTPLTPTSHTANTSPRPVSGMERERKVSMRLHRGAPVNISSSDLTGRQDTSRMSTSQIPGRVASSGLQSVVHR", "format": "functional"}, "[4]": {"molecular_target": "Melanin-concentrating hormone receptor 1 (Homo sapiens, UniProt Q99705)", "sequence (Q99705 whole entry)": "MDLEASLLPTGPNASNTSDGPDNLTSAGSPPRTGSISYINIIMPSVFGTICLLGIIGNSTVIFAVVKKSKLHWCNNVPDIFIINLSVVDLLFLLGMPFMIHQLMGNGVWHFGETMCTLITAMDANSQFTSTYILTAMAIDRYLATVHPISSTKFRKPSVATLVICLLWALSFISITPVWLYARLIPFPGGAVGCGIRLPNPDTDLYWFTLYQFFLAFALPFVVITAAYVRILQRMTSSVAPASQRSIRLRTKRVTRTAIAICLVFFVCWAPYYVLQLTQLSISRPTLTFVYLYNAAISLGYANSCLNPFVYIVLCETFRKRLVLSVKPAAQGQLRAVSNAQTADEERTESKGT", "assay": "Late-stage fluorescence-based counterscreen for antagonists of the G-protein coupled receptor 7 (GPR7): cell-based dose response assay to identify antagonists of the melanin-concentrating hormone receptor 1 (MCHR1) Set 5.", "format": "functional"}, "[5]": {"molecular_target": "Neuropeptides B/W receptor type 1 (Homo sapiens, UniProt P48145)", "sequence (P48145 whole entry)": "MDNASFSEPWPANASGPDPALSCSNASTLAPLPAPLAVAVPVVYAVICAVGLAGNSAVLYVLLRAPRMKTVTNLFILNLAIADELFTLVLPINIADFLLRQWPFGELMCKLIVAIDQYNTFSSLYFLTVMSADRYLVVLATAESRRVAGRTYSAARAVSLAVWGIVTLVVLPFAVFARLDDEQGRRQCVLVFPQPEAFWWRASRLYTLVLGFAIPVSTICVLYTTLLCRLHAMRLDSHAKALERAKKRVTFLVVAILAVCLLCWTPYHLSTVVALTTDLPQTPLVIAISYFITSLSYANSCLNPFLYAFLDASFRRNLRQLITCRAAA", "assay": "GPR7 antagonist potency, late-stage follow-up, cell-based, fluorescence, dose response, set 5 (AID 588566)", "format": "functional"}, "[6]": {"molecular_target": "T4, Apoptotic protease-activating factor 1 (Homo sapiens, UniProt O14727)", "T4 sequence (O14727 whole entry)": "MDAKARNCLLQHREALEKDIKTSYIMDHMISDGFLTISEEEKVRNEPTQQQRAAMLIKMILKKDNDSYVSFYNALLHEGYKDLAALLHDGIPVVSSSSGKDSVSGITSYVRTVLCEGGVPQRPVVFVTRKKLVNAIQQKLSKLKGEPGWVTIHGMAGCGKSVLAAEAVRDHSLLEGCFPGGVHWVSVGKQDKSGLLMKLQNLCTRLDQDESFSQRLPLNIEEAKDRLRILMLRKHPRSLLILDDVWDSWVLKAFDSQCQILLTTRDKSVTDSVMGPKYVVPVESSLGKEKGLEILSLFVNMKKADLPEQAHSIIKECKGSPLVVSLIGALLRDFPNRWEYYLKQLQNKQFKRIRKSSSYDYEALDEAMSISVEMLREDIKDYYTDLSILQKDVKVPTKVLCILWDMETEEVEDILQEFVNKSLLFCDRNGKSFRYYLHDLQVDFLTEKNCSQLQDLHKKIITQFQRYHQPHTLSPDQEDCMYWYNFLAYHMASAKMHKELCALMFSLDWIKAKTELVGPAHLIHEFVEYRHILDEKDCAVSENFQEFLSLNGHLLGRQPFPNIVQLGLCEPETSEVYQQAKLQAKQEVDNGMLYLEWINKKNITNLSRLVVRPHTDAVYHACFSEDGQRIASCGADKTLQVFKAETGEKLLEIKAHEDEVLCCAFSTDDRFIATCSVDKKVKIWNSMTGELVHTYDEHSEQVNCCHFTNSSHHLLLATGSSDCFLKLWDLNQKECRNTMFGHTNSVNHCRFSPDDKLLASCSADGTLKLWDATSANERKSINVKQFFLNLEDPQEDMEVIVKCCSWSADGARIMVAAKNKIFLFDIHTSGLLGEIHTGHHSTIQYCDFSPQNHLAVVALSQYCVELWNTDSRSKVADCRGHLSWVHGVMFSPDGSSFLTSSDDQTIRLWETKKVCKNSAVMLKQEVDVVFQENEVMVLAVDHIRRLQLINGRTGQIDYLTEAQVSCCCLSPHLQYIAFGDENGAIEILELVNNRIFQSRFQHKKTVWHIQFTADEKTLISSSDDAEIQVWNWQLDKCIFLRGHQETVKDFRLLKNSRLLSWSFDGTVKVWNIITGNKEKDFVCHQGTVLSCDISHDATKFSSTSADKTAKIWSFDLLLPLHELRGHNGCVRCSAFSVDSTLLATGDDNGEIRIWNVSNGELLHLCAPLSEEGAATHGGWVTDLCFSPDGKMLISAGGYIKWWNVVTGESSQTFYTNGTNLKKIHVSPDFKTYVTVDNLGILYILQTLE", "assay": "SAR analysis of small molecule Activators of Apaf-1 in a Fluorescent assay.", "format": "functional", "conditions": "read-out: EC50_Mean"}, "[7]": {"assay": "growth suppression of PTEN-null colon cells, dose response, cell-based, HCT116 PTEN knockout (AID 1047);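 note: cells exposed to compound for 60 hours before readout; potency for loss of cell viability measured by luminescence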", "format": "functional"}, "[8]": {"assay": "growth suppression of beta-catenin-knockout colon cells, dose response, cell-based, HCT116, human colon tumor (AID 1045);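 note: cells exposed to compound for 60 hours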", "format": "functional"}, "[9]": {"molecular_target": "Mitogen-activated protein kinase 13 (Homo sapiens, UniProt O15264)", "sequence (O15264 whole entry)": "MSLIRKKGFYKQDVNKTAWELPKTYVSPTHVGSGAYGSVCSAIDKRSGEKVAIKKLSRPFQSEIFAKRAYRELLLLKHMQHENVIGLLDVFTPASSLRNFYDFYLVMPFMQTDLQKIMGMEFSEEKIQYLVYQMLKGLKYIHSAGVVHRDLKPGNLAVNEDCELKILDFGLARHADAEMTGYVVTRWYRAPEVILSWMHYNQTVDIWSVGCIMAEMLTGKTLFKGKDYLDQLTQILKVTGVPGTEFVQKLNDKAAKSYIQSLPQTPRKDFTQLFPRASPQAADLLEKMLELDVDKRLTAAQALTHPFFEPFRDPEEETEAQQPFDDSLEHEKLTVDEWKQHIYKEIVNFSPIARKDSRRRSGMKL", "format": "functional"}, "[10]": {"molecular_target": "Voltage-gated inwardly rectifying potassium channel KCNH2 (Homo sapiens, UniProt Q12809)", "sequence (Q12809 whole entry)": "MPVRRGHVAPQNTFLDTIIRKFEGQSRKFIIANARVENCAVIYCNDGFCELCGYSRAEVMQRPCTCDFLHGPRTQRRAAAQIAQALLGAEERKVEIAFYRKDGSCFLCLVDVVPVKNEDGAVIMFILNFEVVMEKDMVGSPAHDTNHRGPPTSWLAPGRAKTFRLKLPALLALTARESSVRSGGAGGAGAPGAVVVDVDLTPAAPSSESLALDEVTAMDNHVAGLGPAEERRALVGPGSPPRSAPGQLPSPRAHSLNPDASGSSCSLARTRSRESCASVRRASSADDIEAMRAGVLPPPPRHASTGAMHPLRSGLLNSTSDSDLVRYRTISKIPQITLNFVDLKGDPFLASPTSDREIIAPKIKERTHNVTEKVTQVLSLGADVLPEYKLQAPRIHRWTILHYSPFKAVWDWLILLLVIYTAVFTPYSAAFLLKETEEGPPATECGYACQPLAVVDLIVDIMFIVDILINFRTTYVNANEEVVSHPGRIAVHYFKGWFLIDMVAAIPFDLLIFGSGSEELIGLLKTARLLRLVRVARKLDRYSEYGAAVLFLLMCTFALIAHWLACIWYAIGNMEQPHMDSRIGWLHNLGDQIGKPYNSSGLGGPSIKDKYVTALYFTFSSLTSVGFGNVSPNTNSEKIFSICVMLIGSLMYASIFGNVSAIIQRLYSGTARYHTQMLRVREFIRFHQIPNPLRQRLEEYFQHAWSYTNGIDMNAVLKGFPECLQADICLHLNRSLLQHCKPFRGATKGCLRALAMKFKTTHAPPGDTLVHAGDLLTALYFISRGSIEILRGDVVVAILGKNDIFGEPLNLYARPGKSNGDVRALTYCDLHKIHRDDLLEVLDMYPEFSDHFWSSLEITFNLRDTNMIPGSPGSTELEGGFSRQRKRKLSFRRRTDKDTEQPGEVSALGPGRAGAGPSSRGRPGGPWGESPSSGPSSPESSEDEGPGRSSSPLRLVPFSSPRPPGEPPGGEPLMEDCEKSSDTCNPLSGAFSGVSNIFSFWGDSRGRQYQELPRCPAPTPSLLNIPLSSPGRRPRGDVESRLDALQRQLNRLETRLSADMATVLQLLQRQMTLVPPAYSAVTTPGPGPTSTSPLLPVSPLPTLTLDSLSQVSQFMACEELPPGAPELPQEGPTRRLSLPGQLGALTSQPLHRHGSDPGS", "conditions": "Potency"}}, "note": "The source made the active and inactive calls.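 Throughout, for AC50: confirmatory quantitative high-throughput screen measuring inhibition of hERG channel activity.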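 Throughout, for EC50 Mean: caspase-3 cleavage of fluorogenic Rh110 DEVD substrate downstream of apoptosome activation.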"}
{"smiles": "CC(C)(C)c1ccc(-c2noc(-c3ccno3)n2)cc1", "values": [{"measurement": "IC50", "setting": "[1]", "value": "> 67.5 µM (inactive)"}, {"measurement": "IC50", "setting": "HEK293", "value": "> 67.5 µM (inactive)"}]}
{"smiles": "Cc1nc2ncccn2c1-c1csc(NCc2ccco2)n1", "values": [{"measurement": "CC50", "setting": "Vero", "value": "> 40 µM (active)"}]}
{"smiles": "Cc1ccc(-c2cc(C(=O)N3CCc4ccccc4C3)no2)cc1", "values": [{"measurement": "IC50", "setting": "Phospholipase A2", "value": "8.83 µM (active)"}, {"measurement": "IC50", "setting": "Cysteine protease ATG4B", "value": "13.3 µM (active)"}]}
{"smiles": "CC(=O)NC1C(=O)N(Cc2ccccc2)c2ccc(Br)cc21", "note": "(stereo not given)", "values": [{"measurement": "IC50", "setting": "Hexokinase HKDC1", "value": "> 80 µM (inactive)"}, {"measurement": "IC50", "setting": "Hexokinase-1", "value": "> 80 µM (inactive)"}]}
{"smiles": "O=C(CN1C(=O)CCC1=O)Nc1nc(-c2nc3ccccc3s2)cs1", "values": [{"measurement": "EC50", "setting": "[2]", "value": "0.0444 µM (active)"}]}
{"smiles": "CN(Cc1ccccc1F)c1nc(-c2cccnc2)nc2ccccc12", "values": [{"measurement": "EC50", "setting": "[2]", "value": "6.08 µM (active)"}]}
{"smiles": "CC1(N2CCC(c3ccccc3)CC2)CCN(C(=O)CNc2ncnc3cc(Cl)c(Cl)cc23)C1", "note": "(stereo not given)", "values": [{"measurement": "Ki", "setting": "[3]", "value": "3.16 µM (active)"}]}
{"smiles": "CCOC(=O)c1nn(-c2ccc(C(C)C)cc2)c(=O)c(Oc2ccc(OC)cc2)c1Cl", "values": [{"measurement": "IC50", "setting": "[4]", "value": "> 20 µM (inactive)"}, {"measurement": "IC50", "setting": "[5]", "value": "> 20 µM (inactive)"}]}
{"smiles": "COc1ccc(C(=O)NC(CCc2ccccc2)CC(=O)O)cc1", "note": "(stereo not given)", "values": [{"measurement": "EC50", "setting": "[6]", "value": "> 100 µM (inactive)"}]}
{"smiles": "O=C(C1CCCCN1C1c2ccccc2-c2ccccc21)N1CCN(c2ccc([N+](=O)[O-])cc2)CC1", "note": "(stereo not given)", "values": [{"measurement": "IC50", "setting": "[4]", "value": "> 20 µM (inactive)"}, {"measurement": "IC50", "setting": "[5]", "value": "> 20 µM (inactive)"}]}
{"smiles": "Cc1[nH]n(-c2ccccc2)c(=O)c1N=Nc1nccs1", "values": [{"measurement": "EC50", "setting": "[7]", "value": "5.42 µM (active)"}, {"measurement": "CC50", "setting": "Vero", "value": "> 40 µM (active)"}, {"measurement": "EC50", "setting": "[8]", "value": "4.29 µM (active)"}]}
{"smiles": "N#Cc1ncc2nc1OCCCCCOc1cc(OCCCO)c(Cl)cc1NC(=O)N2", "values": [{"measurement": "Ki", "setting": "[9]", "value": "> 7.94 µM (inactive)"}]}
{"smiles": "CCOP(=S)(OCC)Oc1nc(Cl)c(Cl)cc1Cl", "note": "[CHLORPYRIFOS]", "values": [{"measurement": "AC50", "setting": "[10]", "value": "50.1 µM (inconclusive)"}]}
